Experimental data taken from patent publication EP4759807A1, “PROTEOLYSIS TARGETING CHIMERA COMPOUND FOR DEGRADING IRAK4 AND USE THEREOF” (Shenzhen Zhongge Biological Technology Co., Ltd., priority 2023, dated 2025).
Read-outs that look alike come from different tables or passages of the source.

Target: T1, IRAK4 (Homo sapiens, UniProt Q9NWZ3)
T1 sequence (Q9NWZ3 1-460): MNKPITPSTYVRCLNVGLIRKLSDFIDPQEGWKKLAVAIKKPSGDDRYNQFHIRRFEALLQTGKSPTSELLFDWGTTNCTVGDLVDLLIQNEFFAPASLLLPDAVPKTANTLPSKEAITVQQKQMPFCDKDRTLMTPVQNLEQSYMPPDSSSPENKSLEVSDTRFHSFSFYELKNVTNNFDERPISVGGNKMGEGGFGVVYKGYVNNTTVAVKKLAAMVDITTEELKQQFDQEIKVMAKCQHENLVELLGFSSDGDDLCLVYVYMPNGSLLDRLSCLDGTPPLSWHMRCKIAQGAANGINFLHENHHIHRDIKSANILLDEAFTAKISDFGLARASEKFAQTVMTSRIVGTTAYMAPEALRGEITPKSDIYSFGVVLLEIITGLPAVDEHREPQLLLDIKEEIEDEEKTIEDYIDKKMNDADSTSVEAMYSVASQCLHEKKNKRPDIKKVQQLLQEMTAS
Assay: WB detection of proteolysis (Western Blot, THP-1 cells)
Type: cell-based
Settings: Western Blot, THP-1 cells, 24 h; for DC50: read-out: DC50
Procedure: The degradation level of IRAK4 in THP-1 cells was detected by Western Blot technology. […] 1000X gradient dilution stock of the compound was prepared, with the highest concentration set at 300 µM. The dilution was carried out using DMSO in a 1:3 dilution factor, yielding a total of 9 concentrations. 1000X gradient dilutions of the compound were added to a 12-well plate, with 1 µL per well. Incubation was performed under conditions of 37°C and 5% CO2 for 24 h, and the cells were collected into 2 mL of centrifuge tubes and centrifuged at 5000 rpm for 5 min, and the supernatant was removed. 100 µL of RIPA lysis buffer (Beyotime, P0013C) was added and mixed uniformly, then the cells were lysed on ice for 10 min, centrifuged at 4°C at 14000 rpm for 10 min, and the supernatant was collected. Protein content was determined with BCA (Solarbio, PC0020-10*50T). 75 µL of the supernatant was taken, and 25 µL of NuPAGE LDS Sample Buffer (4X) (Thermo B0007) was added to each tube (5% β-mercaptoethanol was added before use) to prepare samples, and the samples were boiled in a metal bath at 100°C for 5 min. […] 1x NuPAGE™ MOPS SDS electrophoresis buffer (20X) (Invitrogen, NP0001) was prepared, and the electrophoresis instrument was set to a constant current of 300 mA for 100 min, and the protein was transferred to a PVDF membrane (Millipore, IPVH00010). […] The membrane was washed three times with 1x TBST (Elabscience E-BC-R335) the next day, each time for 5 min. […] The membrane was washed three times with TBST, each time for 5 min. The Odyssey imaging system Li-cor Odyssey CLx was used to detect signals and analyze data. GraphPad (Prism 9.3) software was used to perform analysis for data, and non-linear fitting (non-liner inhibitor (Bell-shaped)) and four parameters (4 parameter) were used, and the parameters was as follows: Span1 = Plateau1−Dip [formula] Span2 = Plateau2−Dip [formula] Section1 = Span1/(1+10^(∧)((LogEC50_1−X)*nH1)) [formula] Section2 = Span2/(1+10^(∧)((X−LogEC50_2)*nH2)) [formula]
The equation was as follows: Y=Dip+Section1+Section2.

Structure (SMILES)	DC50	Dmax (read-out: Dmax)	Dmax
Cn1c(=O)n(C2CCC(=O)NC2=O)c2cccc(N3CCC(CN4CCC5(CCC(n6cc(-n7cc(-c8ccc9cc(C(N)=O)cnn89)nn7)c(C(F)F)n6)CC5)CC4)CC3)c21 (stereo not drawn) [Example 172]	< 10 nM	> 70%	–
C[C@H]1CN(C2CCN(c3cccc4c3n(C)c(=O)n4C3CCC(=O)NC3=O)CC2)CCN1C[C@H]1CC[C@H](n2cc(-n3cc(-c4cnn5ccc(N6CCC[C@H](O)C6)nc45)nn3)c(C(F)F)n2)CC1 (stereo partly drawn) [Example 291, 3-(4-(4-((S)-4-(((1R,4S)-4-(3-(difluoromethyl)-4-(4-(5-((S)-3-hydroxypiperidin-1-yl)pyrazolo[1,5-a]pyrimidin-3-yl)-1H-1,2,3-triazol-1-yl)-1H-pyrazol-1-yl)cyclohexyl)methyl)-3-methylpiperazin-1-yl)piperidin-1-yl)-3-methyl-2-oxo-2,3-dihydro-1H-benzo[d]imidazol-1-yl)piperidine-2,6-dione]	< 10 nM	> 70%	–
C[C@H]1CC2(CCN(c3cccc4c3n(C)c(=O)n4C3CCC(=O)NC3=O)CC2)CN1C[C@H]1CC[C@H](n2cc(-n3cc(-c4cnn5ccc(N6CCC[C@H](O)C6)nc45)nn3)c(C(F)F)n2)CC1 (stereo partly drawn) [Example 295, 3-(4-((S)-2-(((1R,4S)-4-(3-(difluoromethyl)-4-(4-(5-((S)-3-hydroxypiperidin-1-yl)pyrazolo[1,5-a]pyrimidin-3-yl)-1H-1,2,3-triazol-1-yl)-1H-pyrazol-1-yl)cyclohexyl)methyl)-3-methyl-2,8-diazaspiro[4.5]dec-8-yl)-3-methyl-2-oxo-2,3-dihydro-1H-benzo[d]imidazol-1-yl)piperidine-2,6-dione]	> 30 nM	> 70%	–
Cn1c(=O)n(C2CCC(=O)NC2=O)c2cccc(N3CCC(CN4CCC5(CCC(n6cc(-n7cc(-n8ccc9cc(C(N)=O)cnc98)nn7)c(C(F)F)n6)CC5)CC4)CC3)c21 (stereo not drawn) [Example 286]	> 30 nM	< 60%	–
Cn1c(=O)n(C2CCC(=O)NC2=O)c2cccc(N3CCC(N4CCN(C[C@H]5CC[C@H](n6cc(-n7cc(-c8cnn9ccc(N%10CCC[C@@H](O)C%10)nc89)nn7)c(C(F)F)n6)CC5)CC4)CC3)c21 (stereo partly drawn) [Example 247]	< 10 nM	> 70%	–
Cn1c(=O)n(C2CCC(=O)NC2=O)c2cccc(N3CCC(CN4CCC5(CCC(n6cc(-n7cc(-c8cnn9ccc(N[C@@H]%10CCCC[C@@H]%10O)nc89)nn7)c(C(F)F)n6)CC5)CC4)CC3)c21 (stereo partly drawn) [Example 171, 3-(4-(4-((9-(3-(difluoromethyl)-4-(4-(5-(((1R,2S)-2-hydroxycyclohexyl)amino)pyrazolo[1,5-a]pyrimidin-3-yl)-1H-1,2,3-triazol-1-yl)-1H-pyrazol-1-yl]-3-azaspiro[5.5]undecan-3-yl)methyl)piperidin-1-yl)-3-methyl-2-oxo-2,3-dihydro-1H-benzo[d]imidazol-1-yl)piperidine-2,6-dione]	< 10 nM	> 70%	–
Cn1c(=O)n(C2CCC(=O)NC2=O)c2cccc(N3CCC4(CCN(CC5CCC(n6cc(-n7cc(-c8cnn9ccc(N%10CCO[C@@H](CO)C%10)nc89)nn7)c(C(F)F)n6)CC5)CC4)CC3)c21 (stereo partly drawn) [Example 176]	< 10 nM	–	A (Dmax ≥ 70%)
Cn1c(=O)n(C2CCC(=O)NC2=O)c2cccc(N3CCCN(C[C@H]4CC[C@H](n5cc(-n6cc(-c7ccc8cc(C(N)=O)cnn78)nn6)c(C(F)F)n5)CC4)CC3)c21 (relative stereo) [Example 289, 7-(1-(3-(difluoromethyl)-1-((1R,4R)-4-((4-(1-(2,6-dioxopiperidin-3-yl)-3-methyl-2-oxo-2,3-dihydro-1H-benzoimidazol-4-yl)-1,4-diazepan-1-yl)methyl)cyclohexyl)-1H-pyrazol-4-yl)-1H-1,2,3-triazol-4-yl)pyrrolo[1,2-b]pyridazine-3-carboxamide]	< 10 nM	< 60%	–
Cn1c(=O)n(C2CCC(=O)NC2=O)c2cccc(N3CCC(CN4CCC5(CCC(n6cc(-n7cc(-c8cnn9ccc(N%10CCC[C@H](O)C%10)nc89)nn7)c(C(F)F)n6)CC5)CC4)CC3)c21 (stereo partly drawn) [Example 290]	< 10 nM	> 70%	–
Cn1c(=O)n(C2CCC(=O)NC2=O)c2cccc(N3CCC(N4CCN(C[C@H]5CC[C@H](n6cc(-n7cc(-c8cnn9ccc(N%10CCOC[C@@H]%10CO)nc89)nn7)c(C(F)F)n6)CC5)CC4)CC3)c21 (stereo partly drawn) [Example 173]	< 10 nM	> 70%	–
Cn1c(=O)n(C2CCC(=O)NC2=O)c2cccc(N3CCC(N4CCN(C[C@H]5CC[C@H](n6cc(-n7cc(-c8cnn9ccc(N%10CCC[C@H](O)C%10)nc89)nn7)c(C(F)F)n6)CC5)CC4)[C@@H](F)C3)c21 (stereo partly drawn) [Example 297, 3-(4-((3S)-4-(4-(((1R,4S)-4-(3-(difluoromethyl)-4-(4-(5-((S)-3-hydroxypiperidin-1-yl)pyrazolo[1,5-a]pyrimidin-3-yl)-1H-1,2,3-triazol-1-yl)-1H-pyrazol-1-yl)cyclohexyl)methyl)piperazin-1-yl)-3-fluoropiperidin-1-yl)-3-methyl-2-oxo-2,3-dihydro-1H-benzo[d]imidazol-1-yl)piperidine-2,6-dione]	< 10 nM	> 70%	–
Cn1c(=O)n(C2CCC(=O)NC2=O)c2cccc(N3CCC4(CCN(C[C@H]5CC[C@H](n6cc(-n7cc(-c8cnn9ccc(N%10CCOC[C@@H]%10CO)nc89)nn7)c(C(F)F)n6)CC5)CC4)CC3)c21 (stereo partly drawn) [Example 174]	< 10 nM	> 70%	–
C[C@H]1CN(C[C@H]2CC[C@H](n3cc(-n4cc(-c5cnn6ccc(N[C@@H]7CCCC[C@@H]7O)nc56)nn4)c(C(F)F)n3)CC2)CCN1C1CCN(c2cccc3c2n(C)c(=O)n3C2CCC(=O)NC2=O)CC1 (stereo partly drawn) [Example 166]	< 10 nM	> 70%	–
Cn1nc(N2CCC(=O)NC2=O)c2ccc(N3CCC(N4CCN(C[C@H]5CC[C@H](n6cc(-n7cc(-c8cnn9ccc(N[C@@H]%10CCCC[C@@H]%10O)nc89)nn7)c(C(F)F)n6)CC5)CC4)CC3)cc21 [Example 161]	> 30 nM	< 60%	–
C[C@@H]1CN(C2CCN(c3cccc4c3n(C)c(=O)n4C3CCC(=O)NC3=O)CC2)CCN1C[C@H]1CC[C@H](n2cc(-n3cc(-c4cnn5ccc(N6CCC[C@H](O)C6)nc45)nn3)c(C(F)F)n2)CC1 (stereo partly drawn) [Example 292]	< 10 nM	> 70%	–
Cn1nc(C2CCC(=O)NC2=O)c2cccc(N3CCC(N4CCN(C[C@H]5CC[C@H](n6cc(-n7cc(-c8cnn9ccc(N%10CCC[C@H](O)C%10)nc89)nn7)c(C(F)F)n6)CC5)CC4)CC3)c21 (stereo partly drawn) [Example 293]	< 10 nM	> 70%	–
C[C@@H]1CN(C[C@H]2CC[C@H](n3cc(-n4cc(-c5cnn6ccc(N7CCC[C@H](O)C7)nc56)nn4)c(C(F)F)n3)CC2)CCN1C1CCN(c2cccc3c2n(C)c(=O)n3C2CCC(=O)NC2=O)CC1 (stereo partly drawn) [Example 294, 3-(4-(4-((R)-4-(((1R,4R)-4-(3-(difluoromethyl)-4-(4-(5-((S)-3-hydroxypiperidin-1-yl)pyrazolo[1,5-a]pyrimidin-3-yl)-1H-1,2,3-triazol-1-yl)-1H-pyrazol-1-yl)cyclohexyl)methyl)-2-methylpiperazin-1-yl)piperidin-1-yl)-3-methyl-2-oxo-2,3-dihydro-1H-benzo[d]imidazol-1-yl)piperidine-2,6-dione]	< 10 nM	> 70%	–
Cn1c(=O)n(C2CCC(=O)NC2=O)c2cccc(N3CCC(N4CCN(C[C@H]5CC[C@H](n6cc(-n7cc(-c8cnn9ccc(N%10CCO[C@@H](CO)C%10)nc89)nn7)c(C(F)F)n6)CC5)CC4)CC3)c21 (stereo partly drawn) [Example 175]	< 10 nM	> 70%	–
